From patent US20180289666A1, “FLAVONOLIGNANS FOR TREATMENT OF AUTOIMMUNE INFLAMMATORY DISEASES” (Macau University of Science and Technology, priority 2017, published 2018)

Experiments:
Assay type in all cases: in vivo, Sprague-Dawley (SD) rats
[1] = test system: IL-1β, TNF-α, IL-33, MMP-9, TIMP-1 and PGE2 in serum; test: Serum cytokine levels by ELISA in AIA rats; conditions: 42 days treatment, versus vehicle-treated AIA rats
Description: Disease severity and progression were evaluated by measurements of both hind paw volumes with a plethysmometer chamber (Yiyan technology, Jinan, China) and body weight with a 0.1 g precision balance (Sartorius AG, Göttingen, Germany) every two or three days after arthritis induction. For evaluation the arthritic scoring, the lesions of four paws of each rat (i.e., the arthritic signs) were graded by two separate investigators with a semi-quantitative scale: 0 (normal), 4-8 (mild changes), 8-12 (moderate changes), and 12-16 (severe changes) (van Eden W., et. al., J. E. Coligan, Editor. 2001, John Wiley: New York. p. 1-11). Erythrocyte sedimentation rate (ESR) was determined with ICSH (International Council for Standardization in Hematology) selected method with little modifications at day 42. Briefly, 120 μl of blood sample was taken directly and put into 30 μl of 0.109 mol/L sodium citrate, mixed well, and then transferred into a 1.0 mm×100 mm capillary tube (West China Medical University, ChengDu, China). The tubes were held obliquely at an angle of […] and the erythrocyte sedimentation rate was recorded at 15 min. The cytokines levels including IL-1β, TNF-α, IL-17, IL-33, MMP-9, TIMP-1 and PGE2 in serum were measured using commercially available ELISA kits according to the manufacturers instructions. At the end of the experiments, rat knee images were measured (mean of three readings per knee, Meinaite digital calliper, ShangHai, China) using a IVIS Lumina XRMS Series (PerkinElmer, America) (Esser, R. E., et al., Arthritis Rheum, 1995, 38(1): p. 129-38).

AIA rats [2] = test: Assessment of liver abnormality and lipid profile in AIA model
Description: Serum ALT, AST, ALP, GGT and total bilirubin were measured by automatic biochemical analyzer (Toshiba Corporation, Tokyo, Japan). Lipids profile including TG, TC, HDL-C, LDL-C/vLDL-C and free fatty acids were measured in the serum. After animals were sacrificed, tissues of liver were fixed in 10% formalin solution, cleared in xylene, embedded in paraffin blocks from which 5 micron-thick sections were obtained. Sections were stained with H&E dye and examined for pathological changes under light microscope by a pathologist blind to the specimens.

AIA rats [3] = test: Plasma metabolomics by LC-MS/MS in AIA rats
Description: The plasma sample (200 μL) was thawed on ice for 5 min prior to sample preparation and was mixed with 200 μL of 10 mM N-ethylmaleimide (NEM) in PBS buffer solution and 1000 μL of methanol containing internal standard (I.S.) Phe-d5 in 10 ng/ml. This mixture was incubated at −20° C. for 20 min, and then centrifuged at 12000 rpm for 10 min at 4° C. The supernatant was completely dried under nitrogen flow (Pressure Blowing Concentrator, Tokyo Rikakika, Tokyo, Japan) and reconstituted with distilled water.
LC-MS/MS analysis was performed on A Waters ACQUITY UPLC coupled with a 4000 Q-TRAP mass spectrometer. Chromatographic separation was carried on a Waters X Bridge™ BEH C18 analytical column (2.5 μm, 3.0×100 mm; Waters, Torrance, Calif.) with a mobile phase composed of 0.1% formic acid water (solvent A) and methanol (solvent B) which was running in a gradient program: 0-3.0 min (0%-1% B); 3.0-10.0 min (1-3% B); 10.0-14.0 min (3-50% B); 14.0-18.0 min (50-95% B); 18.0-22.0 min (95-0% B); followed by a 3-min re-equilibration step. The injection volume was 10 μl at 4° C. and flow rate was 0.6 ml/min. Electrospray (ESI) source were used in both positive and negative ion mode. […]
The normalized data were exported and further processed by PCA and PLS-DA using a multivariate analysis package SIMCA-P software (Umea, Sweden). Model quality was evaluated based on the relevant values of R^2 and Q^2. […]

## COc1cc([C@H]2Oc3cc([C@H]4Oc5cc(O)cc(O)c5C(=O)[C@@H]4O)ccc3O[C@@H]2CO)ccc1O (stereo in doubt) [Silybin]
[1]
  serum level of IL-1β: significant decrease
  serum level of MMP-9: significant decrease
  serum level of PGE2: significant decrease
  serum level of TIMP-1: significant decrease
  serum level of TNF-α: significant decrease
AIA rats [2]; H&E liver sections
  histopathological assessment of liver tissue: preserved the normal architecture of hepatocytes with light congestion of central vein
AIA rats [2]; Silybin 200 mg/kg
  dyslipidemia (serum lipid profile): successfully improved
AIA rats [2]; Silybin 200 mg/kg, P<0.001
  ALP level: markedly reduced
AIA rats [2]; Silybin 200 mg/kg, P<0.05
  AST level: markedly reduced
AIA rats [3]
  metabolic network (plasma metabolites): effectively repair the metabolic network
